# Patent publication US5281596A, “Antibacterial drugs for fish” (Bayer Aktiengesellschaft, priority 1986, dated 1994)
# Like-named read-outs stand apart in the source and are kept apart here.
# Assays:
# Type in all cases: cell-based
# Aeromonas hydrophila [1] = assay: In vitro antibacterial activity on pathogenic bacteria for fish (agar MIC, Test Example 1); settings: 20 h; for MIC (minimum growth-inhibition concentration): Mueller-Hinton agar; for MIC: Aeromonas hydrophila
# Description: (§1) In vitro antibacterial activity on pathogenic-bacteria for fish
# (§2) Each of the test strains was cultured over-night, and each culture broth (containing about 10^6 cells/ml) was innoculated in Mueller-Hinton agar (DIFCO) supplied with 1.0-2.0% sodium chloride and containing the test compound at each specified concentration.
# Pasteurella piscicida [2] = assay: as above; settings: 20 h; for MIC (minimum growth-inhibition concentration): Mueller-Hinton agar; for MIC: Photobacterium damselae
# Description: as §1, §2
# Vibrio anguillarum [3] = assay: as above; settings: 20 h; for MIC: Vibrio anguillarum, read-out: MIC (minimum growth-inhibition concentration); for MIC (minimum growth-inhibition concentration): Mueller-Hinton agar
# Description: as §1, §2
# Aeromonas salmonicida = assay: In vitro antibacterial activity of Compound D against various pathogenic bacteria for fish (agar MIC, Test Example 2); settings: 20 h, read-out: MIC (minimum growth-inhibition concentration)
# Description: (§3) In vitro antibacterial activity of Compound D against Various Pathogenic Bacteria for Fish
# (§4) Each of the test strains was cultured over-night, and the resultant culture broth (containing about 10^6 cells/ml) was innoculated in Mueller-Hinton agar (DIFCO) supplied with 1.0-2.0% sodium chloride and containing the test compound at the specified concentration.
# Edwardsiella tarda = assay: as above; settings: 20 h, read-out: MIC (minimum growth-inhibition concentration)
# Description: as §3, §4
# Pasteurella piscicida [4] = assay: as above; settings: Photobacterium damselae, 20 h, read-out: MIC (minimum growth-inhibition concentration)
# Description: as §3, §4
# [5] = tested on: Pseudomonas anguilliseptica; assay: as above; settings: 20 h, read-out: MIC (minimum growth-inhibition concentration)
# Description: as §3, §4
# Streptococcus sp. = assay: as above; settings: 20 h, read-out: MIC (minimum growth-inhibition concentration)
# Description: as §3, §4
# Vibrio anguillarum [6] = assay: as above; settings: 20 h
# Description: as §3, §4
# Aeromonas hydrophila [7] = assay: as above; settings: 20 h, read-out: MIC (minimum growth-inhibition concentration)
# Description: as §3, §4
# [8] = 25 strains, Mueller-Hinton agar, 25-30 °C
compound,measurement,setting,value
"CCN1CCN(c2cc3c(cc2F)c(=O)c(C(=O)O)cn3C2CC2)CC1 [Compound D, 1-cyclopropyl-6-fluoro-1,4-dihydro-4-oxo-7-(4-ethylpiperazino)-quinoline-3-carboxylic acid]",MIC (minimum growth-inhibition concentration),"Aeromonas hydrophila [1]; Aeromonas hydrophila strain C 44, 25-30 °C",< 0.0125 µg/mL
same,MIC (minimum growth-inhibition concentration),"Aeromonas hydrophila [1]; Aeromonas hydrophila strain KA8414, 25-30 °C",< 0.0125 µg/mL
same,MIC (minimum growth-inhibition concentration),"Aeromonas hydrophila [1]; Aeromonas hydrophila strain KA8416, 25-30 °C",< 0.0125 µg/mL
same,MIC (minimum growth-inhibition concentration),"Aeromonas hydrophila [1]; Aeromonas hydrophila strain M 183, 25-30 °C",< 0.0125 µg/mL
same,MIC,"Aeromonas hydrophila [1]; Aeromonas hydrophila strain KA8301, Mueller-Hinton agar, 25-30 °C, read-out: MIC (minimum growth-inhibition concentration)",0.025 µg/mL
same,MIC (minimum growth-inhibition concentration),"Pasteurella piscicida [2]; Pasteurella piscicida strain EH8309, 25-30 °C",0.025 µg/mL
same,MIC (minimum growth-inhibition concentration),"Pasteurella piscicida [2]; Pasteurella piscicida strain NG8319, 25-30 °C",0.025 µg/mL
same,MIC,"Pasteurella piscicida [2]; Pasteurella piscicida strain EH8304, Mueller-Hinton agar, 25-30 °C, read-out: MIC (minimum growth-inhibition concentration)",0.05 µg/mL
same,MIC,"Pasteurella piscicida [2]; Pasteurella piscicida strain EH8312, Mueller-Hinton agar, 25-30 °C, read-out: MIC (minimum growth-inhibition concentration)",0.05 µg/mL
same,MIC,"Pasteurella piscicida [2]; Pasteurella piscicida strain EH8313, Mueller-Hinton agar, 25-30 °C, read-out: MIC (minimum growth-inhibition concentration)",0.05 µg/mL
same,MIC,"Vibrio anguillarum [3]; Vibrio anguillarum strain NA8340, Mueller-Hinton agar, 25-30 °C",0.025 µg/mL
same,MIC,"Vibrio anguillarum [3]; Vibrio anguillarum strain NA8341, Mueller-Hinton agar, 25-30 °C",0.025 µg/mL
same,MIC,"Vibrio anguillarum [3]; Vibrio anguillarum strain NA8346, Mueller-Hinton agar, 25-30 °C",0.025 µg/mL
same,MIC,"Vibrio anguillarum [3]; Vibrio anguillarum strain NA8347, Mueller-Hinton agar, 25-30 °C",0.025 µg/mL
same,MIC,"Vibrio anguillarum [3]; Vibrio anguillarum strain NH8410, Mueller-Hinton agar, 25-30 °C",0.025 µg/mL
same,MIC,Aeromonas salmonicida; [8],0.0125 to 0.1 µg/mL
same,MIC,Edwardsiella tarda; [8],0.025 to 0.2 µg/mL
same,MIC,"Pasteurella piscicida [4]; Pasteurella piscicida, 25 strains, Mueller-Hinton agar, 25-30 °C",0.0125 to 0.05 µg/mL
same,MIC,"[5]; 18 strains, Mueller-Hinton agar, 25-30 °C",0.0125 to 0.025 µg/mL
same,MIC,"Streptococcus sp.; Streptococcus sp., 25 strains, Mueller-Hinton agar, 25-30 °C",0.8 µg/mL
same,MIC,"Vibrio anguillarum [6]; Ayu origin, 25 strains, Mueller-Hinton agar, 25-30 °C, read-out: MIC (minimum growth-inhibition concentration)",0.025 to 0.4 µg/mL
same,MIC,"Vibrio anguillarum [6]; Yellowtail origin, 25 strains, Mueller-Hinton agar, 25-30 °C, read-out: MIC (minimum growth-inhibition concentration)",0.05 to 0.1 µg/mL
"CCn1cc(C(=O)O)c(=O)c2cc3c(cc21)OCO3 [Compound OA, 1-ethyl-1,4-dihydro-6,7-methylenedioxy-4-oxo-3-quinolinecarboxylic acid, reference compound]",MIC,"Aeromonas hydrophila [1]; read-out: MIC (minimum growth-inhibition concentration), Aeromonas hydrophila strain C 44, Mueller-Hinton agar, 25-30 °C",< 0.0125 µg/mL
same,MIC,"Aeromonas hydrophila [1]; read-out: MIC (minimum growth-inhibition concentration), Aeromonas hydrophila strain KA8301, Mueller-Hinton agar, 25-30 °C",< 0.0125 µg/mL
same,MIC,"Aeromonas hydrophila [1]; read-out: MIC (minimum growth-inhibition concentration), Aeromonas hydrophila strain KA8414, Mueller-Hinton agar, 25-30 °C",< 0.0125 µg/mL
same,MIC,"Aeromonas hydrophila [1]; read-out: MIC (minimum growth-inhibition concentration), Aeromonas hydrophila strain KA8416, Mueller-Hinton agar, 25-30 °C",< 0.0125 µg/mL
same,MIC,"Aeromonas hydrophila [1]; read-out: MIC (minimum growth-inhibition concentration), Aeromonas hydrophila strain M 183, Mueller-Hinton agar, 25-30 °C",< 0.0125 µg/mL
same,MIC,"Pasteurella piscicida [2]; read-out: MIC (minimum growth-inhibition concentration), Pasteurella piscicida strain EH8304, Mueller-Hinton agar, 25-30 °C",0.1 µg/mL
same,MIC,"Pasteurella piscicida [2]; read-out: MIC (minimum growth-inhibition concentration), Pasteurella piscicida strain EH8309, Mueller-Hinton agar, 25-30 °C",0.1 µg/mL
same,MIC,"Pasteurella piscicida [2]; read-out: MIC (minimum growth-inhibition concentration), Pasteurella piscicida strain EH8312, Mueller-Hinton agar, 25-30 °C",0.1 µg/mL
same,MIC,"Pasteurella piscicida [2]; read-out: MIC (minimum growth-inhibition concentration), Pasteurella piscicida strain EH8313, Mueller-Hinton agar, 25-30 °C",0.1 µg/mL
same,MIC,"Pasteurella piscicida [2]; read-out: MIC (minimum growth-inhibition concentration), Pasteurella piscicida strain NG8319, Mueller-Hinton agar, 25-30 °C",0.1 µg/mL
same,MIC (minimum growth-inhibition concentration),"Vibrio anguillarum [3]; Vibrio anguillarum strain NA8340, 25-30 °C",0.05 µg/mL
same,MIC (minimum growth-inhibition concentration),"Vibrio anguillarum [3]; Vibrio anguillarum strain NA8341, 25-30 °C",0.05 µg/mL
same,MIC (minimum growth-inhibition concentration),"Vibrio anguillarum [3]; Vibrio anguillarum strain NA8346, 25-30 °C",0.05 µg/mL
same,MIC (minimum growth-inhibition concentration),"Vibrio anguillarum [3]; Vibrio anguillarum strain NA8347, 25-30 °C",0.05 µg/mL
same,MIC,Vibrio anguillarum [3],0.05 µg/mL
same,MIC,Aeromonas hydrophila [7],0.0125 to 0.025 µg/mL
same,MIC,Aeromonas salmonicida,0.05 to 3.2 µg/mL
same,MIC,Edwardsiella tarda,0.05 to 1.6 µg/mL
same,MIC,Pasteurella piscicida [4],0.025 to 0.1 µg/mL
same,MIC,[5],0.0125 to 0.05 µg/mL
same,MIC,Streptococcus sp.; Streptococcus,200 to 400 µg/mL
same,MIC,"Vibrio anguillarum [6]; read-out: MIC (minimum growth-inhibition concentration), Vibrio anguillarum, Ayu origin, 25 strains, Mueller-Hinton agar, 25-30 °C",0.05 to 25 µg/mL
same,MIC,"Vibrio anguillarum [6]; read-out: MIC (minimum growth-inhibition concentration), Vibrio anguillarum, Yellowtail origin, 25 strains, Mueller-Hinton agar, 25-30 °C",0.025 to 0.05 µg/mL
